Source: ChEMBL document CHEMBL1201862, “PubChem BioAssay data set” (2004)
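Method: 48-hour compound exposure of cells in 96-well plates, five concentrations, linear interpolation of endpoints. GI50: concentration for 50% inhibition of growth.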 Activity calls are given as the source filed them. Rule as the data show it: active = GI50 up to about 1.1 µM and inactive = higher.

How the values were obtained:
Assay in all cases: growth of human tumour cells (NCI), 48 h
786-0 = test system: 786-0
ACHN = test system: ACHN
BT-549 = test system: BT-549
CCRF-CEM = test system: CCRF-CEM
COLO 205 = test system: COLO 205
DU-145 = test system: DU-145
HCC 2998 = test system: HCC 2998
K562 = test system: K562
NCI-H226 = test system: NCI-H226
NCI-H460 = test system: NCI-H460
OVCAR-3 = test system: OVCAR-3
OVCAR-5 = test system: OVCAR-5
PC-3 = test system: PC-3
RXF 393 = test system: RXF 393
SF-295 = test system: SF-295
SNB-19 = test system: SNB-19
SNB-75 = test system: SNB-75
UACC-257 = test system: UACC-257
UACC-62 = test system: UACC-62

Structure (SMILES) | GI50 (786-0) | GI50 (ACHN) | GI50 (BT-549) | GI50 (CCRF-CEM) | GI50 (COLO 205) | GI50 (DU-145) | GI50 (HCC 2998) | GI50 (K562) | GI50 (NCI-H226) | GI50 (NCI-H460) | GI50 (OVCAR-3) | GI50 (OVCAR-5) | GI50 (PC-3) | GI50 (RXF 393) | GI50 (SF-295) | GI50 (SNB-19) | GI50 (SNB-75) | GI50 (UACC-257) | GI50 (UACC-62)
COC1C(O)C(O[C@H]2CC[C@@]3(C)C(CC[C@@H]4[C@@H]3CC[C@]3(C)[C@@H](C(C)OC5OC(CO)C(O)C(O)C5O)CC[C@]43O)C2)OC(C)C1OC1OC(CO)C(O)C(O)C1O (some centres not stated) | > 100 µM (inactive) | > 100 µM (inactive) | > 100 µM (inactive) | > 100 µM (inactive) | > 100 µM (inactive) | > 100 µM (inactive) | > 100 µM (inactive) | > 100 µM (inactive) | > 100 µM (inactive) | > 100 µM (inactive) | > 100 µM (inactive) | > 100 µM (inactive) | > 100 µM (inactive) | > 100 µM (inactive) | > 100 µM (inactive) | > 100 µM (inactive) | > 100 µM (inactive) | > 100 µM (inactive) | > 100 µM (inactive)
O/N=N/c1ccc([SH2]c2ccc3ccccc3c2)cn1 | 31.3 µM (inactive) | 18.6 µM (inactive) | 23 µM (inactive) | 3.04 µM (inactive) | 20.2 µM (inactive) | 17.1 µM (inactive) | 13.4 µM (inactive) | 16.8 µM (inactive) | 31.6 µM (inactive) | 15.4 µM (inactive) | 43.8 µM (inactive) | 32.7 µM (inactive) | 8.85 µM (inactive) | < 0.01 µM (active) | 25.8 µM (inactive) | 40.2 µM (inactive) | 20.2 µM (inactive) | 36.1 µM (inactive) | 27.6 µM (inactive)
N#Cc1c(Cl)nc2ccccc2c1N=[N+]=[N-] | 2.8 µM (inactive) | 2.11 µM (inactive) | 1.8 µM (inactive) | 1.41 µM (inactive) | 1.88 µM (inactive) | 14.9 µM (inactive) | 6.12 µM (inactive) | 0.705 µM (active) | 12.5 µM (inactive) | 5.19 µM (inactive) | 1.78 µM (inactive) | 6.61 µM (inactive) | 2.65 µM (inactive) | 1.44 µM (inactive) | 8.55 µM (inactive) | 14.8 µM (inactive) | 8.67 µM (inactive) | 12.7 µM (inactive) | 2.63 µM (inactive)
COc1ccc(-n2nnc3c(C#N)c(C)c(-c4ccccc4)n3c2=O)cc1 | 1.94 µM (inactive) | 7.38 µM (inactive) | 5.92 µM (inactive) | 0.38 µM (active) | 2.93 µM (inactive) | 1.62 µM (inactive) | 3.56 µM (inactive) | – | 2.3 µM (inactive) | 3.65 µM (inactive) | 1.16 µM (inactive) | 3.33 µM (inactive) | 1.82 µM (inactive) | 2.2 µM (inactive) | 2.24 µM (inactive) | 3.35 µM (inactive) | 3.2 µM (inactive) | > 47.4 µM (inactive) | 4.41 µM (inactive)
Nc1nc(O)c(N)c(NCCOCP(=O)(O)O)n1 | > 100 µM (inactive) | > 100 µM (inactive) | > 74.8 µM (inactive) | > 100 µM (inactive) | > 100 µM (inactive) | > 100 µM (inactive) | > 100 µM (inactive) | > 100 µM (inactive) | > 100 µM (inactive) | > 100 µM (inactive) | > 100 µM (inactive) | > 100 µM (inactive) | > 100 µM (inactive) | > 100 µM (inactive) | > 100 µM (inactive) | > 100 µM (inactive) | > 65.6 µM (inactive) | > 100 µM (inactive) | > 57.1 µM (inactive)
O=c1[nH]c(-c2ccccc2)nc2c1sc1nc3ccccc3n12 | > 100 µM (inactive) | 61.4 µM (inactive) | > 61 µM (inactive) | > 100 µM (inactive) | > 100 µM (inactive) | > 100 µM (inactive) | > 100 µM (inactive) | > 100 µM (inactive) | > 100 µM (inactive) | > 100 µM (inactive) | > 100 µM (inactive) | > 100 µM (inactive) | > 100 µM (inactive) | > 100 µM (inactive) | > 100 µM (inactive) | 98.4 µM (inactive) | > 63.1 µM (inactive) | > 100 µM (inactive) | > 100 µM (inactive)
CCOC(=O)c1sc2ncnc(N)c2c1C | 53.8 µM (inactive) | 65.8 µM (inactive) | > 100 µM (inactive) | 62.1 µM (inactive) | 19.6 µM (inactive) | 68.7 µM (inactive) | 40.1 µM (inactive) | > 100 µM (inactive) | 75.5 µM (inactive) | > 100 µM (inactive) | > 100 µM (inactive) | 36.3 µM (inactive) | 68.5 µM (inactive) | 22.8 µM (inactive) | 79.4 µM (inactive) | 63.7 µM (inactive) | 35.1 µM (inactive) | 34.4 µM (inactive) | 35.3 µM (inactive)
COc1ccc(-c2cc(-c3ccc(Nc4ccnc5cc(C(F)(F)F)ccc45)cc3)[nH]c(=O)c2C#N)cc1 | 14.1 µM (inactive) | > 42.1 µM (inactive) | > 52 µM (inactive) | > 24 µM (inactive) | > 39.4 µM (inactive) | > 84.7 µM (inactive) | > 100 µM (inactive) | 33.8 µM (inactive) | > 29.3 µM (inactive) | > 100 µM (inactive) | > 100 µM (inactive) | > 66.5 µM (inactive) | > 100 µM (inactive) | > 32.7 µM (inactive) | > 32.7 µM (inactive) | 16.4 µM (inactive) | 8.24 µM (inactive) | > 100 µM (inactive) | 62.4 µM (inactive)
C=CCC1(OCc2ccccc2)C(=O)C(=O)OC1C1COC(C)(C)O1 (configuration not stated) | > 100 µM (inactive) | > 100 µM (inactive) | > 100 µM (inactive) | > 100 µM (inactive) | > 100 µM (inactive) | > 100 µM (inactive) | > 100 µM (inactive) | > 100 µM (inactive) | > 100 µM (inactive) | > 100 µM (inactive) | > 100 µM (inactive) | > 100 µM (inactive) | > 100 µM (inactive) | > 100 µM (inactive) | > 100 µM (inactive) | > 100 µM (inactive) | > 100 µM (inactive) | > 100 µM (inactive) | > 100 µM (inactive)
N[C@H]1CCCC[C@@H]1N1C(=O)c2ccccc2C1(O)c1ccc(Cl)cc1 (some centres not stated) | 12.6 µM (inactive) | 13.7 µM (inactive) | 15 µM (inactive) | 2.94 µM (inactive) | 3.41 µM (inactive) | 13.2 µM (inactive) | 1.86 µM (inactive) | 3.19 µM (inactive) | 15.9 µM (inactive) | 11.2 µM (inactive) | 8.73 µM (inactive) | 15.1 µM (inactive) | 11.4 µM (inactive) | 6.07 µM (inactive) | 16 µM (inactive) | 14 µM (inactive) | 1.31 µM (inactive) | 4.15 µM (inactive) | 13 µM (inactive)
NS(=O)(=O)c1ccc(NC(=O)Nc2cccc3ccccc23)cc1 | 19 µM (inactive) | 33.2 µM (inactive) | 87.1 µM (inactive) | > 100 µM (inactive) | 86.9 µM (inactive) | 23.8 µM (inactive) | 27.6 µM (inactive) | > 100 µM (inactive) | 27.2 µM (inactive) | 40.8 µM (inactive) | 46.9 µM (inactive) | > 100 µM (inactive) | 20.2 µM (inactive) | 30.5 µM (inactive) | 35.6 µM (inactive) | 21.1 µM (inactive) | 22.5 µM (inactive) | > 100 µM (inactive) | 23.6 µM (inactive)
Cc1ccc(C(=O)C2=CN=C3C(=O)N(c4ccccc4)N(C)C3(C)C2=N)cc1 (configuration not stated) | > 100 µM (inactive) | > 100 µM (inactive) | > 100 µM (inactive) | > 100 µM (inactive) | > 100 µM (inactive) | > 100 µM (inactive) | > 100 µM (inactive) | > 100 µM (inactive) | > 100 µM (inactive) | > 100 µM (inactive) | > 100 µM (inactive) | > 100 µM (inactive) | > 100 µM (inactive) | > 100 µM (inactive) | > 100 µM (inactive) | – | > 100 µM (inactive) | > 100 µM (inactive) | > 100 µM (inactive)
O=C1C(Cl)=C(N[C@@H](Cc2ccccc2)C(=O)OCc2ccccc2)C(=O)c2c(O)ccc(O)c21 | 3.11 µM (inactive) | 4.05 µM (inactive) | > 10 µM (inactive) | 0.485 µM (active) | 2.28 µM (inactive) | 4.45 µM (inactive) | > 10 µM (inactive) | – | 5.3 µM (inactive) | 4.59 µM (inactive) | 2.45 µM (inactive) | 6.18 µM (inactive) | 3.72 µM (inactive) | 4.92 µM (inactive) | 5.66 µM (inactive) | 5.81 µM (inactive) | 4.73 µM (inactive) | > 10 µM (inactive) | 2.96 µM (inactive)
CC(C)(C)OC(=O)NC1CCCC1C(=O)C1=CCCC1 (configuration not stated) | > 100 µM (inactive) | > 100 µM (inactive) | > 100 µM (inactive) | 74.6 µM (inactive) | > 100 µM (inactive) | > 100 µM (inactive) | 88.7 µM (inactive) | > 100 µM (inactive) | > 100 µM (inactive) | > 100 µM (inactive) | > 100 µM (inactive) | > 100 µM (inactive) | > 100 µM (inactive) | > 100 µM (inactive) | – | > 100 µM (inactive) | 72.9 µM (inactive) | > 100 µM (inactive) | 70.1 µM (inactive)
